According to US8415310B2, “Isoxazoline derivatives as antiparasitic agents” (AH USA 42 LLC, priority 2010, dated 2013):

Legend:
[1] = test system: Lepeophtheirus salmonis; assay: Copepod (Lepeophtheirus salmonis) BioAssay; type: in vivo; settings: pre-adult/adult salmon lice exposed for 24 hours in sea water
Description: Copepod (Lepeophtheirus salmonis) BioAssay
Two Formula (1) compounds were dissolved in sea water. Negative control was sea water and positive control was emamectin benzoate. Ten pre-adult/adult salmon lice were exposed for 24 hours. Lice were monitored for motility and endpoint data was recorded as an Effective Concentration 100% (EC^100) based on immotility.

[2] = test system: Ctenocephalides felis; assay: Flea (Ctenocephalides felis) Membrane Feed Assay-Adult; type: in vivo
Description: Flea (Ctenocephalides felis) Membrane Feed Assay-Adult
Comparative Data: Flea Feed Assay
Comparator compounds T1 and T2 were tested in the flea feed assay, as described above, and are compared to Examples 39 and 43, respectively. The compounds T1 (WO2008/122375) and T2 (US2009/0156643) represent the closet exemplified art. The data represents the 24 hour time period. Endpoint data were recorded as an lethal dose 90% (LD^90) in μg/mL. […] Comparator compounds T1 and T2 both had LD^90 values of >30 […].

[3] = comparative data, flea feed assay, 24 hour time period

SMILES | Effective Concentration 100% (EC^100) based on immotility [1] [ppb] | lethal dose 90% (LD^90) [2, 3] [µg/mL] | other results
O=C(CC(F)(F)F)N1CC(F)(c2ccc(C3=NOC(c4cc(Cl)c(F)c(Cl)c4)(C(F)(F)F)C3)cc2)C1 (racemic) [Example 19, 1-(3-(4-(5-(3,5-dichloro-4-fluorophenyl)-5-(trifluoromethyl)-4,5-dihydroisoxazol-3-yl)phenyl)-3-fluoroazetidin-1-yl)-3,3,3-trifluoropropan-1-one] | 50 | – | –
CC(C)C(=O)N1CC(F)(c2ccc(C3=NOC(c4cc(Cl)c(F)c(Cl)c4)(C(F)(F)F)C3)cc2)C1 (single isomer, unassigned) [Example 177, 5-(3,5-dichloro-4-fluorophenyl)-3-[4-(3-fluoro-1-isobutyrylazetidin-3-yl)phenyl]-5-(trifluoromethyl)-4,5-dihydroisoxazole] | 50 | – | –
O=C(NC1CC1)N1CC(F)(c2ccc(C3=NOC(c4cc(Cl)cc(Cl)c4)(C(F)(F)F)C3)cc2)C1 (centres unmarked) [Example 10, N-cyclopropyl-3-(4-(5-(3,5-dichlorophenyl)-5-(trifluoromethyl)-4,5-dihydroisoxazol-3-yl)phenyl)-3-fluoroazetidine-1-carboxamide] | – | – | lethal dose 90% (LD^90) ([2]; adult fleas fed on treated citrated bovine blood approximately 2 hours, knockdown and/or death at approximately 2 and 24 hours): ≤ 0.03 µg/mL
CC(=O)N1CC(F)(c2ccc(C3=NOC(c4cc(Cl)cc(Cl)c4)(C(F)(F)F)C3)cc2)C1 (centres unmarked) [Example 39, 1-(3-(4-(5-(3,5-Dichlorophenyl)-5-(trifluoromethyl)-4,5-dihydroisoxazol-3-yl)phenyl)-3-fluoroazetidin-1-yl)ethanone] | – | ≤ 3 | –
O=C(CC(F)(F)F)N1CC(F)(c2ccc(C3=NOC(c4cc(Cl)cc(Cl)c4)(C(F)(F)F)C3)cc2)C1 (centres unmarked) [Example 43, 1-(3-(4-(5-(3,5-Dichlorophenyl)-5-(trifluoromethyl)-4,5-dihydroisoxazol-3-yl)phenyl)-3-fluoroazetidin-1-yl)-3,3,3-trifluoropropan-1-one] | – | ≤ 1 | –
